These results are taken from patent US20250290065A1, “METHODS FOR MODULATING HUMAN L1 RETROTRANSPOSONS RNA AND COMPOSITIONS FOR USE THEREIN” (King Abdullah University of Science and Technology, priority 2019, published 2025).

The test system of data set [1] is Line 1 retrotransposition. Conditions: Nishikawa et al. 2018; Banuelos-Sanchez et al. 2019; cited from earlier work.
Another data set concerns L1 promoter. Conditions: Terasaki, et al., PLoS One 2013; cited from earlier work.
The test system of data set [2] is differentiating osteoblasts. Put plainly: Mineralization assay (OsteoImage) in differentiating osteoblasts. The class given is cell-based, human. As to conditions: 150 μM, after 21 days of differentiation, vs DMSO. The procedure:
Bone marrow-derived MSC (#C-12974, PromoCell GmbH, Heidelberg, Germany) were grown in 0.1% gelatin solution (#07903, StemCell)-coated plates until passage 4. Growth medium (#PT-3001, Lonza) was changed every 3 days. Osteogenic differentiation was induced by replacing growth medium with Osteogenic Differentiation Medium (#PT-3002, Lonza) on 70% confluent cells seeded on 1:50 Matrigel (#356237, Corning)-coated plates. Adipogenic differentiation was induced by three cycles of induction/maintenance Adipogenic Differentiation Medium (#PT-3004, Lonza) on post-confluent cells seeded on 1:50 MatMatrigel (#356237, Corning)-coated plates.
(§1) Cells were washed in PBS and fixed with 4% Paraformaldehyde for 15 minutes. Mineralization was assessed by using the OsteoImage Mineralization Assay (#LOPA503, Lonza) according to manufacturer's indication. Mineralization was quantitatively assayed with GloMax discover plate reader (Promega) with appropriate excitation (492)/emission (520) wavelengths.

Data set [3] concerns human mesenchymal stem cells. Put plainly: Cell cycle analysis (Propidium Iodide, FACS). The class given is cell-based. As to conditions: 3TC vs DMSO; data not shown. The procedure:
2×105 MSCs were trypsinized for 5 min at 37° C., washed with PBS and 2% BSA, passed through a […] strainer (#352350, Corning) and then fixed at −20° C. for 30 min in 70% ethanol. After washing with PBS and 4% BSA, cells were resuspended in PBS and incubated 1 hour at 37° C. with RNAse. Cells were then washed and resuspended in 100 μl of Flow Cytometry Staining Buffer (R&D System, #FC001). 10 μl of 1 mg/ml Propidium iodide (PI) staining solution (#P3566) was added to the single cell solution, gently mixed, and incubated 5 min in the dark. Cell cycle analysis was performed on BD FACSCanto II Flow Cytometry System, using BD FACSDiva Software.

In data set [4] the test system is OP patients derived MSC differentiating to osteoblasts. As to the kind of experiment: L1 RNA transfection of MSC from osteoporotic patients, bone matrix quantification. The data set is classed as cell-based, human. The procedure: as §1
Data set [5] concerns BAX, IFNa2, IFNb1, IFI44 expression in MSC.
Experimental: L1 RNA was transfected in differentiating osteoblasts at day 7 using Lipofectamine™ MessengerMAX™ (Invitrogen, USA, Cat. No. LMRNA003) with a modified protocol were a lower RNA amount (10 times less) than recommended was transfected. RFP mRNA (System Bioscience, USA, Cat. No. MR800A-1) was used as negative control.
Real time quantitative polymerase chain reaction (qPCR) was performed with 7900HT Fast Real Time PCR system (Applied Biosystems). Each sample was analyzed in triplicate and normalized with the endogenous control, Ribosomal Protein L13A (RPL13A) for osteogenesis and Tata Binding Protein (TBP) for adipogenesis, for cDNA input concentration. No template and no RT were included as negative controls. For each 15 μl reaction, 10 ng (1 ng for L1) of cDNA was mixed with 1 μM specific primers mix and 7.5 μl of Sybr Select Master mix (#4472908, Life Technologies). The reaction was incubated at 95° C. for 10 minutes, followed by 40 cycles of denaturation at 95° C. for 15 seconds, annealing at 60° C. for 30 seconds and elongation at 72° C. for 30 seconds. Ct values were calculated by 7900HT Fast Real Time PCR RQ manager software (Applied Biosystems) and then normalized as DCt between the gene of interest and the endogenous calibrator. […] In all primer pairs each primer matches a different exon. Amplicons length was 80-130 nucleotides.

Entries after “also recorded” stand apart in the source; their conditions may differ.

As to `Nc1nc(=O)n([C@@H]2CS[C@H](CO)O2)cc1F` [emtricitabine], the “Line 1 retrotransposition” value in data set [1] is recorded as “inhibit Line 1 retrotansposition”. For `O=C1NC(=S)NC(=O)C1C(=O)Nc1ccccc1` [merbarone], in the data set on L1 promoter, the L1 promoter activity entry is reported as “induce L1 promoter activity”. Take `CC1=C(CC(=O)O)c2cc(F)ccc2/C1=C\c1ccc([S+](C)[O-])cc1` (centres unmarked) [sulindac]: the L1 promoter activity entry in the data set on L1 promoter is “induce L1 promoter activity”. Consider `NC(=O)c1ccccc1O` [salicylamide], for which, in the data set with L1 promoter, the L1 promoter activity entry is recorded as “induce L1 promoter activity”.

Regarding `Nc1ccn([C@@H]2CS[C@H](CO)O2)c(=O)n1` [Lamivudine 3TC, Lamivudine], the “mineral deposition (mineralization)” value is given as −69% in data set [2] and −60% in data set [2] (listed as 3TC). The “cell cycle analysis and apoptotic cell number in sub-G1 peak” value in data set [3] is “no significant differences”. For `c1ccc2c(c1)cc1ccc3cccc4ccc2c1c34` [benzo[a]pyrene], the L1 promoter activity entry in the data set with L1 promoter is on record as “induce L1 promoter activity”. On to `O=C(O)c1ccccc1Nc1cccc(C(F)(F)F)c1` [flufenamic acid], for which, in the data set with L1 promoter, the L1 promoter activity result is reported as “induce L1 promoter activity”.

Consider `O=C(O)c1cc(-c2ccc(F)cc2F)ccc1O` [diflunisal], for which the L1 promoter activity result in the data set on L1 promoter was “induce L1 promoter activity”. For `C=C1[C@@H](C)[C@H]2[C@H](Cc3ccccc3)NC(=O)[C@]23[C@H](OC(C)=O)/C=C/[C@@](C)(O)C(=O)[C@@H](C)C/C=C/[C@H]3[C@@H]1O` [cytochalasin D], the L1 promoter activity result with L1 promoter is “induce L1 promoter activity”. With “L1 RNA: Cy5-conjugated synthetic full-length human L1 mRNA, in vitro transcribed, capped, 5-methyl-C, Pseudo-U substituted, polyadenylated (TriLink)”, the osteoblasts maturation entry in data set [4] (in vitro differentiating MSC, all patients tested) was “greatly enhanced osteoblasts maturation”. In data set [4] (transfection at day 7 of osteogenesis, three days after transfection, 4 OP patients, vs random RNA), the “bone matrix production / mineralized matrix” value is given as “restored bone matrix production; also recorded: fully rescued the production of mineralized matrix”. In data set [5], the “induction of apoptosis and Interferon response genes” value is “neither apoptosis nor Interferon response genes were induced”.

On to `CC[C@]1(O)C[C@@H]2CN(CCc3c([nH]c4ccccc34)[C@@](C(=O)OC)(c3cc4c(cc3OC)N(C)[C@H]3[C@@](O)(C(=O)OC)[C@H](OC(C)=O)[C@]5(CC)C=CCN6CC[C@]43[C@@H]65)C2)C1` [vinblastine], for which the L1 promoter activity entry in the data set on L1 promoter is given as “induce L1 promoter activity”. Regarding `COc1cc(CNC(=O)CCCC/C=C/C(C)C)ccc1O` [Capsaicin], the “Line 1 retrotransposition” value in data set [1] was “inhibit Line 1 retrotansposition”. For the compound `CC[C@@]1(O)C(=O)OCc2c1cc1n(c2=O)Cc2cc3ccccc3nc2-1` [camptothecin], the L1 promoter activity result with L1 promoter is given as “induce L1 promoter activity”.
